According to paper PMC1762332, “Catalases Are NAD(P)H-Dependent Tellurite Reductases” (PLoS ONE, 2006):

How the values were obtained:
[1] = biological target: T1, E. coli katG (HPI catalase) (Escherichia coli, UniProt P13029); assay: in-gel tellurite reductase activity after native PAGE of E. coli extract; absent in katG mutant; type: biochemical; details: 1 mM K2TeO3, 1 mM NADH, 1 mM 2-mercaptoethanol, potassium phosphate pH 7, 37 °C, 12 h
T1 construct: native enzyme in extract of E. coli (Top10 with pBAD vector), resolved on native gel; tetramer; band absent in katG mutant

[2] = biological target: T2, S. epidermidis CH katA (catalase) (Staphylococcus epidermidis, UniProt Q2PUJ9); assay: in-gel tellurite reductase activity after native PAGE of recombinant E. coli extract; type: biochemical; details: 1 mM K2TeO3, 1 mM NADH, 1 mM 2-mercaptoethanol, potassium phosphate pH 7, 37 °C, 12 h
T2 construct: katA coding region (1,515 bp) in pBAD (plasmid pCAT), expressed in E. coli Top10, extract; about 60 kDa subunit; homolog of SE1016 of ATCC12228
T2 sequence (Q2PUJ9 3-504): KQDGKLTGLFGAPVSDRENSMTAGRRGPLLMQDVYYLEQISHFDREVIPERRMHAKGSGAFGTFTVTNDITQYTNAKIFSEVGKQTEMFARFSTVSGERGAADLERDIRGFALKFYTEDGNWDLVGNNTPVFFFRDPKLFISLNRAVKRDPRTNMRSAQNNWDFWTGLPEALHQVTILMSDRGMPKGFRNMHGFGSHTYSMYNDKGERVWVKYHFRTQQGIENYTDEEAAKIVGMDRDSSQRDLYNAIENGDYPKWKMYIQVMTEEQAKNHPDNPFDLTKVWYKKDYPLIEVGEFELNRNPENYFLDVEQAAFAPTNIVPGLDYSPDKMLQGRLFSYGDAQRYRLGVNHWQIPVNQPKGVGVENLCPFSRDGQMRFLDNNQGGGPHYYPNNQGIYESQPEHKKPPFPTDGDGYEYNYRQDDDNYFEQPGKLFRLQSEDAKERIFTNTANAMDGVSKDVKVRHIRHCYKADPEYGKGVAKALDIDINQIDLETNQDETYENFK

T1 sequence (P13029 whole entry): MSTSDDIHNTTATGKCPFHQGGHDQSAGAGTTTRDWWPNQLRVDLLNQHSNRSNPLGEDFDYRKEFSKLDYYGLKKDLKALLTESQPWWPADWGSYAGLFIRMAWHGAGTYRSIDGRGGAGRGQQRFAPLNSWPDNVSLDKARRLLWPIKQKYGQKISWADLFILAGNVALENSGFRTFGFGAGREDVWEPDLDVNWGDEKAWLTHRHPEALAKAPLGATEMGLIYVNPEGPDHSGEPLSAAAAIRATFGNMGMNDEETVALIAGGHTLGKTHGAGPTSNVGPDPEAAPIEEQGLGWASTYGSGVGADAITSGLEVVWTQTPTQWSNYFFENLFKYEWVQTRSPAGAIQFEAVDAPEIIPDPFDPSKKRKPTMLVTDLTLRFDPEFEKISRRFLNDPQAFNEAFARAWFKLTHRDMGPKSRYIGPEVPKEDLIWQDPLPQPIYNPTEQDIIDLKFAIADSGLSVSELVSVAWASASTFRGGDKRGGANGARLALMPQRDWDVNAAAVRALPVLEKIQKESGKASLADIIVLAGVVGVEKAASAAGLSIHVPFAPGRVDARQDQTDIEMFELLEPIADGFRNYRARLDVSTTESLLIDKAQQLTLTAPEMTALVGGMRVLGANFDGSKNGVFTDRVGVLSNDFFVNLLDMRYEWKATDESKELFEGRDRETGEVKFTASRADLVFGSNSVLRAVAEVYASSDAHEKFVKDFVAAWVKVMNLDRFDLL

## O=[Te](O)O [tellurite]
[1]
  in-gel tellurite reductase activity after native PAGE of E. coli extract; absent: a barely detectable tellurite reductase activity
[2]
  in-gel tellurite reductase activity after native PAGE of recombinant E. coli ext: tellurite reductase activities of catalase are expressed at more than-four fold higher levels
